Data: the METLIN SMRT retention time set (Domingo-Almenara et al. 2019)

Assay: gradient 5% acetonitrile 3 min, to 50% in 2 min, to 85% in 15 min, held 3 min, 100 µL/min
Conditions: column: Zorbax Extend-C18 2.1 x 50 mm; eluents: water / acetonitrile, 0.1% formic acid
Method in brief: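 Retention times come from adduct peaks that were picked computationally and then checked by hand. The standards, pure and pooled in mixtures of ~100 molecules, were run on a Zorbax Extend-C18 column (2.1 × 50 mm, 1.8 μm) at 100 μL/min with water and acetonitrile, each with 0.1% formic acid. Detection was by quadrupole time-of-flight mass spectrometry in positive and negative ionization mode, with a dead volume of 40 μL and a dwell volume of 900 μL.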

Row | SMILES | RP-LC retention time
1 | O=C1COc2c1ccc(O)c2O | 623 s
2 | CS(=O)(=O)N1CC[C@H]2CN(C(=O)c3ccc4ncccc4c3)C[C@@]2(CF)C1 | 607 s
3 | O=C(CN1C(=O)CCc2cc(Br)ccc21)NCCc1ccccc1 | 870 s
4 | O=C(NCc1ccccc1OC(F)(F)F)c1ccc(N2CCOCC2)nn1 | 777 s
5 | Cc1oc2ccn(Cc3cccc(F)c3)c(=O)c2c1C(=O)NCc1ccccc1F | 1060 s
6 | Cc1ccc(NC(=O)C2CCN(S(=O)(=O)c3cc(C(=O)N(C)C)cs3)CC2)cc1Cl | 912 s
7 | CSc1cccc(NC(=O)N(C)CCc2noc(-c3ccc(F)cc3)n2)c1 | 922 s
8 | O=C(c1csc(N2CCCCCC2)n1)N1CCOCC1 | 767 s
9 | Cc1cc(N2CCN(C(=O)Nc3cccc(C(F)(F)F)c3)CC2)nc(N2CCOCC2)n1 | 675 s
10 | COc1ccc(NC(=O)c2nnc(CCCC(=O)NCCc3c[nH]c4ccc(C)cc34)s2)cc1 | 992 s
11 | COc1ccc(-c2noc(C3CC(=O)N(c4ccc5c(c4)OCO5)C3)n2)c(OC)c1 (centres undefined) | 816 s
12 | Cc1cc(=O)n2c(-c3cccc(NC(=O)Cc4cccs4)c3)csc2n1 | 696 s
13 | COc1cccc2cc(-c3nnc(NC(=O)NC4CCCC4)o3)oc12 | 830 s
14 | Cc1sc(C)c(S(=O)(=O)Nc2ccc3c(c2)OCCO3)c1-c1cc(C(F)(F)F)on1 | 1070 s
15 | Cc1ccc(Cl)cc1N1CCN(C(=O)Cn2nc(C(=O)N3CCCC3)c3ccccc32)CC1 | 1010 s
16 | CCn1ccc(NC(=O)Nc2cc(C)ccc2C)n1 | 869 s
17 | CCn1nc(CNC(=O)Cc2cccs2)c2ccccc21 | 766 s
18 | O=C(Cn1nc2n(c1=O)CCCC2)Nc1ccc(Br)cc1 | 703 s
19 | Cn1nc(-c2nc(-c3ccccc3F)no2)c2c1CCN(C(=O)NC(C)(C)C)C2 | 594 s
20 | O=C(c1n[nH]c2ccccc12)N1CCCn2nc(-c3cccs3)cc2C1 | 791 s
21 | CC(C)CCSc1nnc2c(S(=O)(=O)N3CCOCC3)cccn12 | 810 s
22 | CC1(C(=O)NC2CCCCCCC2)CN(S(C)(=O)=O)CC(=O)N1c1cccc(Cl)c1 (centres undefined) | 963 s

Row | SMILES | RP-LC retention time
23 | CCOc1ccc(-c2noc(Cn3c(=O)n(CC4CCCO4)c(=O)c4ccccc43)n2)cc1 (centres undefined) | 1050 s
24 | CC1CCCN(c2ncc(S(=O)(=O)c3ccc(C(C)C)cc3)c(N)n2)C1 (centres undefined) | 807 s
25 | O=C([C@@H]1C[C@H](Oc2ccccc2)CN1C(=O)CC1CCCC1)N1CCCC1 | 832 s
26 | CC(=O)N1CCc2ccccc2C1C(=O)NCc1cccs1 (centres undefined) | 720 s
27 | Cc1ccc(-c2noc(C3CC3)n2)cc1S(=O)(=O)N1CCC(C(=O)N2CCOCC2)CC1 | 697 s
28 | CCN1C(=O)c2ccccc2Oc2ccc(C(=O)NC3CC3)cc21 | 751 s
29 | O=C(c1nnc(-c2ccc(S(=O)(=O)N3CCCCC3)cc2)o1)N1CCCCC1 | 956 s
30 | COc1ccc(C2CC(=O)Nc3c(C(=O)O)cn(-c4cccc(C(F)(F)F)c4)c32)cc1OC (centres undefined) | 780 s
31 | COCCn1cnc2c(-c3ccccc3)cn(CC(=O)NCc3ccc4c(c3)OCO4)c2c1=O | 828 s
32 | CC(=O)N1CCC(C(=O)N2CCN(S(=O)(=O)c3ccc4c(c3)sc(=O)n4C(C)C)CC2)CC1 | 727 s
33 | CC(C)C(=O)Nc1ccc2c(c1)N(C(=O)c1cccs1)CCC2 | 819 s
34 | CC1CN2C=NC(N3CCN(S(=O)(=O)Cc4cccc(Cl)c4)CC3)=CC2=N1 (centres undefined) | 627 s
35 | O=C(c1ccc(C(F)(F)F)s1)N1CCN(c2nnc3ccccn23)CC1 | 711 s
36 | COc1ccc(NC(=O)CSc2nc3ccccc3nc2C)cc1 | 802 s
37 | COc1ccc(C2CC(=O)N(c3ccc4c(c3)OCCO4)C(=O)C2)cc1OC | 789 s
38 | O=C(NCc1cccc(F)c1)c1ccc2c(c1)ncn2CCN1CCCC1 | 582 s
39 | COCc1noc(C2CCCCN2C(=O)Cc2c(C)noc2C)n1 (centres undefined) | 673 s
40 | Cn1c(CNC(=O)CCC2CCCN(c3cc(NC4CC4)ncn3)C2)nc2ccccc21 (centres undefined) | 560 s
41 | CCCN1C(=O)CCc2cc(NS(=O)(=O)c3ccc(C(F)(F)F)cc3)ccc21 | 914 s
42 | Cc1nnc(N2CCCC(C(=O)NCc3ccccc3F)C2)c2nn(-c3ccccc3)c(C)c12 (centres undefined) | 722 s
43 | CC(NC(=O)Cn1cnc(-c2noc(-c3cccnc3)n2)c1)c1ccccc1 (centres undefined) | 823 s
44 | O=C(c1cn2ccnc(-c3ccc(F)cc3)c2n1)N1CCN(C(=O)c2ccco2)CC1 | 693 s
